Organism: Rattus norvegicus
Assay: DrugMatrix - Regimen: Daily Repeat
Assay type: toxicity, organism-based, Sprague-Dawley
Design: regimen Daily Repeat, gender Male, age 6-8 weeks
Settings: in vivo, po, route oral GAVAGE, vehicle .5 % CMC; for ABSOLUTE BASOPHIL / ABSOLUTE EOSINOPHIL / ABSOLUTE LYMPHOCYTE / ABSOLUTE MONOCYTE / ABSOLUTE SEGMENTED NEUTROPHIL / BASOPHIL / EOSINOPHIL / ERYTHROCYTE COUNT / HEMATOCRIT / HEMOGLOBIN / LEUKOCYTE COUNT / LYMPHOCYTE / MEAN CORPUSCULAR HEMOGLOBIN / MEAN CORPUSCULAR HEMOGLOBIN CONCENTRATION / MEAN CORPUSCULAR VOLUME / MONOCYTE / NEUTROPHIL / NUCLEATED RED BLOOD CELLS / PLATELET COUNT: tissue Blood; for ALANINE AMINOTRANSFERASE / ALBUMIN / ALKALINE PHOSPHATASE / ASPARTATE AMINOTRANSFERASE / BLOOD UREA NITROGEN / CARBON DIOXIDE / CHLORIDE / CHOLESTEROL / CREATINE PHOSPHOKINASE / CREATININE / GLUCOSE / LACTATE DEHYDROGENASE / LIPASE / PHOSPHORUS / POTASSIUM / SODIUM / TOTAL BILIRUBIN / TOTAL PROTEIN / URIC ACID: tissue Plasma
[1] = 5 mg/kg, 72 h, dose level Low, time 3 day
[2] = 5 mg/kg, 120 h, dose level Low, time 5 day
[3] = 35 mg/kg, 72 h, dose level High, time 3 day
[4] = 35 mg/kg, 120 h, dose level High, time 5 day

For `COc1cc(CNC(=O)CCCC/C=C/C(C)C)ccc1O` [CAPSAICIN], the “ABSOLUTE BASOPHIL” value [1] was 0 CELLS/uL, the “ABSOLUTE EOSINOPHIL” value [1] was 231.67 CELLS/uL and the “ABSOLUTE LYMPHOCYTE” value [1] was 12823.67 CELLS/uL. The “ABSOLUTE MONOCYTE” value [1] was 176.33 CELLS/uL, the “ABSOLUTE SEGMENTED NEUTROPHIL” value [1] was 735 CELLS/uL and the BASOPHIL [1] was 0%. For the same compound, the EOSINOPHIL [1] was 1.33%, the “ERYTHROCYTE COUNT” value [1] was 5.55 x10E6/uL and the HEMATOCRIT [1] was 34.43%. The HEMOGLOBIN [1] was 12.97 G/DL, the “LEUKOCYTE COUNT” value [1] was 13.97 x10E3/uL and the LYMPHOCYTE [1] was 92%. The “MEAN CORPUSCULAR HEMOGLOBIN” value [1] was 23.37 pg, the “MEAN CORPUSCULAR HEMOGLOBIN CONCENTRATION” value [1] was 37.63 G/DL and the “MEAN CORPUSCULAR VOLUME” value [1] was 62.03 fL. The MONOCYTE [1] was 1.33%, the NEUTROPHIL [1] was 5.33% and the “NUCLEATED RED BLOOD CELLS” value [1] was 0 /100WBC. The “PLATELET COUNT” value [1] was 1334 x10E3/uL, the “ALANINE AMINOTRANSFERASE” value [1] was 40.33 u/L and the ALBUMIN [1] was 4.27 G/DL. The “ALKALINE PHOSPHATASE” value [1] was 433 u/L, the “ASPARTATE AMINOTRANSFERASE” value [1] was 75.33 u/L and the “BLOOD UREA NITROGEN” value [1] was 15 mg/dL. The “CARBON DIOXIDE” value [1] was 25.33 mmol/L, the CHLORIDE [1] was 104.67 MEQ/L and the CHOLESTEROL [1] was 57 mg/dL. The “CREATINE PHOSPHOKINASE” value [1] was 554.67 u/L, the CREATININE [1] was 0.17 mg/dL and the GLUCOSE [1] was 177.67 mg/dL. For the same compound, the “LACTATE DEHYDROGENASE” value [1] was 121 u/L, the LIPASE [1] was 8 u/L and the PHOSPHORUS [1] was 12.47 mg/dL. For the same compound, the POTASSIUM [1] was 6.02 MEQ/L, the SODIUM [1] was 145.37 MEQ/L and the “TOTAL BILIRUBIN” value [1] was 0.23 mg/dL. The “TOTAL PROTEIN” value [1] was 5.9 G/DL, the “URIC ACID” value [1] was 1.5 mg/dL and the “ABSOLUTE BASOPHIL” value [2] was 0 CELLS/uL. The “ABSOLUTE EOSINOPHIL” value [2] was 118.67 CELLS/uL, the “ABSOLUTE LYMPHOCYTE” value [2] was 14371.67 CELLS/uL and the “ABSOLUTE MONOCYTE” value [2] was 374.33 CELLS/uL. For the same compound, the “ABSOLUTE SEGMENTED NEUTROPHIL” value [2] was 1135.33 CELLS/uL, the BASOPHIL [2] was 0% and the EOSINOPHIL [2] was 0.67%. The “ERYTHROCYTE COUNT” value [2] was 5.31 x10E6/uL, the HEMATOCRIT [2] was 33.03% and the HEMOGLOBIN [2] was 12.53 G/DL. The “LEUKOCYTE COUNT” value [2] was 16 x10E3/uL, the LYMPHOCYTE [2] was 89.67% and the “MEAN CORPUSCULAR HEMOGLOBIN” value [2] was 23.6 pg. For the same compound, the “MEAN CORPUSCULAR HEMOGLOBIN CONCENTRATION” value [2] was 37.93 G/DL, the “MEAN CORPUSCULAR VOLUME” value [2] was 62.17 fL and the MONOCYTE [2] was 2.33%. For the same compound, the NEUTROPHIL [2] was 7.33%, the “NUCLEATED RED BLOOD CELLS” value [2] was 0 /100WBC and the “PLATELET COUNT” value [2] was 1256.67 x10E3/uL. The “ALANINE AMINOTRANSFERASE” value [2] was 50 u/L, the ALBUMIN [2] was 4.1 G/DL and the “ALKALINE PHOSPHATASE” value [2] was 314 u/L. For the same compound, the “ASPARTATE AMINOTRANSFERASE” value [2] was 93.67 u/L, the “BLOOD UREA NITROGEN” value [2] was 18.33 mg/dL and the “CARBON DIOXIDE” value [2] was 24.33 mmol/L. For the same compound, the CHLORIDE [2] was 107.67 MEQ/L, the CHOLESTEROL [2] was 68 mg/dL and the “CREATINE PHOSPHOKINASE” value [2] was 629.33 u/L. For the same compound, the CREATININE [2] was 0.21 mg/dL, the GLUCOSE [2] was 153 mg/dL and the “LACTATE DEHYDROGENASE” value [2] was 471.33 u/L. For the same compound, the LIPASE [2] was 8.33 u/L, the PHOSPHORUS [2] was 12.63 mg/dL and the POTASSIUM [2] was 5.84 MEQ/L. For the same compound, the SODIUM [2] was 145.1 MEQ/L, the “TOTAL BILIRUBIN” value [2] was 0.2 mg/dL and the “TOTAL PROTEIN” value [2] was 6.2 G/DL. For the same compound, the “URIC ACID” value [2] was 1.73 mg/dL, the “ABSOLUTE BASOPHIL” value [3] was 0 CELLS/uL and the “ABSOLUTE EOSINOPHIL” value [3] was 0 CELLS/uL. The “ABSOLUTE LYMPHOCYTE” value [3] was 7477.33 CELLS/uL, the “ABSOLUTE MONOCYTE” value [3] was 60 CELLS/uL and the “ABSOLUTE SEGMENTED NEUTROPHIL” value [3] was 496 CELLS/uL. For the same compound, the BASOPHIL [3] was 0%, the EOSINOPHIL [3] was 0% and the “ERYTHROCYTE COUNT” value [3] was 5.28 x10E6/uL. For the same compound, the HEMATOCRIT [3] was 33.53%, the HEMOGLOBIN [3] was 12.7 G/DL and the “LEUKOCYTE COUNT” value [3] was 8.03 x10E3/uL. For the same compound, the LYMPHOCYTE [3] was 92.67%, the “MEAN CORPUSCULAR HEMOGLOBIN” value [3] was 24.13 pg and the “MEAN CORPUSCULAR HEMOGLOBIN CONCENTRATION” value [3] was 37.9 G/DL. For the same compound, the “MEAN CORPUSCULAR VOLUME” value [3] was 63.63 fL, the MONOCYTE [3] was 1% and the NEUTROPHIL [3] was 6.33%. For the same compound, the “NUCLEATED RED BLOOD CELLS” value [3] was 0.33 /100WBC, the “PLATELET COUNT” value [3] was 1342.33 x10E3/uL and the “ALANINE AMINOTRANSFERASE” value [3] was 44 u/L. The ALBUMIN [3] was 4.33 G/DL, the “ALKALINE PHOSPHATASE” value [3] was 316 u/L and the “ASPARTATE AMINOTRANSFERASE” value [3] was 71.33 u/L. For the same compound, the “BLOOD UREA NITROGEN” value [3] was 17.33 mg/dL, the “CARBON DIOXIDE” value [3] was 27.67 mmol/L and the CHLORIDE [3] was 103.5 MEQ/L. For the same compound, the CHOLESTEROL [3] was 75.67 mg/dL, the “CREATINE PHOSPHOKINASE” value [3] was 217 u/L and the CREATININE [3] was 0.22 mg/dL. For the same compound, the GLUCOSE [3] was 141.67 mg/dL, the “LACTATE DEHYDROGENASE” value [3] was 119.33 u/L and the LIPASE [3] was 8.5 u/L. For the same compound, the PHOSPHORUS [3] was 11.67 mg/dL, the POTASSIUM [3] was 5.75 MEQ/L and the SODIUM [3] was 147.2 MEQ/L. For the same compound, the “TOTAL BILIRUBIN” value [3] was 0.27 mg/dL, the “TOTAL PROTEIN” value [3] was 6.13 G/DL and the “URIC ACID” value [3] was 1.1 mg/dL. For the same compound, the “ABSOLUTE BASOPHIL” value [4] was 0 CELLS/uL, the “ABSOLUTE EOSINOPHIL” value [4] was 117.33 CELLS/uL and the “ABSOLUTE LYMPHOCYTE” value [4] was 12147.67 CELLS/uL. The “ABSOLUTE MONOCYTE” value [4] was 58.67 CELLS/uL, the “ABSOLUTE SEGMENTED NEUTROPHIL” value [4] was 1243 CELLS/uL and the BASOPHIL [4] was 0%. The EOSINOPHIL [4] was 1%, the “ERYTHROCYTE COUNT” value [4] was 5.71 x10E6/uL and the HEMATOCRIT [4] was 34.97%. The HEMOGLOBIN [4] was 13.33 G/DL, the “LEUKOCYTE COUNT” value [4] was 13.57 x10E3/uL and the LYMPHOCYTE [4] was 88.67%. For the same compound, the “MEAN CORPUSCULAR HEMOGLOBIN” value [4] was 23.4 pg, the “MEAN CORPUSCULAR HEMOGLOBIN CONCENTRATION” value [4] was 38.13 G/DL and the “MEAN CORPUSCULAR VOLUME” value [4] was 61.27 fL. The MONOCYTE [4] was 0.33%, the NEUTROPHIL [4] was 10% and the “NUCLEATED RED BLOOD CELLS” value [4] was 0 /100WBC. The “PLATELET COUNT” value [4] was 1274 x10E3/uL, the “ALANINE AMINOTRANSFERASE” value [4] was 52.67 u/L and the ALBUMIN [4] was 4.07 G/DL. The “ALKALINE PHOSPHATASE” value [4] was 391 u/L, the “ASPARTATE AMINOTRANSFERASE” value [4] was 83.67 u/L and the “BLOOD UREA NITROGEN” value [4] was 18 mg/dL. For the same compound, the “CARBON DIOXIDE” value [4] was 25.67 mmol/L, the CHLORIDE [4] was 105.33 MEQ/L and the CHOLESTEROL [4] was 62 mg/dL. The “CREATINE PHOSPHOKINASE” value [4] was 166.33 u/L, the CREATININE [4] was 0.21 mg/dL and the GLUCOSE [4] was 177 mg/dL. For the same compound, the “LACTATE DEHYDROGENASE” value [4] was 115.67 u/L, the LIPASE [4] was 8.67 u/L and the PHOSPHORUS [4] was 13.17 mg/dL. The POTASSIUM [4] was 6.01 MEQ/L, the SODIUM [4] was 146.17 MEQ/L and the “TOTAL BILIRUBIN” value [4] was 0.17 mg/dL. For the same compound, the “TOTAL PROTEIN” value [4] was 6.03 G/DL and the “URIC ACID” value [4] was 1.8 mg/dL.

Source: ChEMBL document CHEMBL3885881, “DrugMatrix”
